Experimental data published in publication PMC10269664, “Cinnamaldehyde Targets the LytTR DNA-Binding Domain of the Response Regulator AgrA to Attenuate Biofilm Formation of Listeria monocytogenes” (Microbiology Spectrum, 2023).
Substitutions are numbered along the chain they refer to.

Columns and labels:
[1] = biological target: T1, AgrA (Listeria monocytogenes EGD-e) (UniProt Q8YAR4); test: EMSA
T1 sequence: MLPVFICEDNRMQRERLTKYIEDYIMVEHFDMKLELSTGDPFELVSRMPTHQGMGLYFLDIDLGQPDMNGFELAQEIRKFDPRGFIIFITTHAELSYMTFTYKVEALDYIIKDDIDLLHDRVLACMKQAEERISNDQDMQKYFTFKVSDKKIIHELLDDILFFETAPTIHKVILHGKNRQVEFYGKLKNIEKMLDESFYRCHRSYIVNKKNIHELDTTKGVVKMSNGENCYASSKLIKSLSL

[2] = biological target: T2, AgrA N178A N178A (Listeria monocytogenes EGD-e) (UniProt Q8YAR4); test: EMSA
T2 sequence: T1 sequence with N178A

AgrA [3] = biological target: T3, AgrA (Listeria monocytogenes, UniProt Q8YAR4); test: microscale thermophoresis; assay type: binding; conditions: read-out: Mean Kd ± SD
T3 construct: gene lmo0051; entire protein, 242 residues, pET-28a His-tag, E. coli BL21(DE3), fluorescently labelled for MST
Excerpt: microscale thermophoresis on AgrA

AgrA [4] = biological target: T4, AgrA (Listeria monocytogenes, UniProt Q8YAR4, D159A); test: biochemical
T4 construct: gene lmo0051

AgrA [5] = biological target: T5, AgrA (Listeria monocytogenes, UniProt Q8YAR4, K177A); test: biochemical
T5 construct: gene lmo0051

AgrA [6] = biological target: T6, AgrA (Listeria monocytogenes, UniProt Q8YAR4, H29A); test: biochemical
T6 construct: gene lmo0051

AgrA [7] = biological target: T7, AgrA (Listeria monocytogenes, UniProt Q8YAR4, D158A); test: biochemical
T7 construct: gene lmo0051

AgrA [8] = biological target: T8, AgrA (Listeria monocytogenes, UniProt Q8YAR4, N178A); test: biochemical
T8 construct: gene lmo0051

AgrA [9] = biological target: T9, AgrA (Listeria monocytogenes, UniProt Q8YAR4, R179A); test: biochemical
T9 construct: gene lmo0051

AgrA [10] = biological target: T10, AgrA (Listeria monocytogenes, UniProt Q8YAR4, G176A); test: biochemical
T10 construct: gene lmo0051

AgrCCyto = biological target: T11, AgrCCyto (Listeria monocytogenes, UniProt Q8YAR5); conditions: 10 μM ATP; 37 °C
T11 construct: gene lmo0050
T11 sequence (Q8YAR5 entry or part of it): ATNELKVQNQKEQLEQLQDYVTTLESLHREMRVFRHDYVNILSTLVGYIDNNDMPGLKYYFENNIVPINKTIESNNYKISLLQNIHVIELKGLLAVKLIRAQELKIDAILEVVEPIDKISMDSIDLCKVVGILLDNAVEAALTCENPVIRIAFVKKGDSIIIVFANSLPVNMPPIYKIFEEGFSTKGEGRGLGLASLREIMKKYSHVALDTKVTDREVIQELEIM

AgrCFL = biological target: T12, AgrCFL (Listeria monocytogenes, UniProt Q8YAR5); conditions: 10 μM ATP; 37 °C
T12 construct: gene lmo0050
T12 sequence (Q8YAR5 entry or part of it): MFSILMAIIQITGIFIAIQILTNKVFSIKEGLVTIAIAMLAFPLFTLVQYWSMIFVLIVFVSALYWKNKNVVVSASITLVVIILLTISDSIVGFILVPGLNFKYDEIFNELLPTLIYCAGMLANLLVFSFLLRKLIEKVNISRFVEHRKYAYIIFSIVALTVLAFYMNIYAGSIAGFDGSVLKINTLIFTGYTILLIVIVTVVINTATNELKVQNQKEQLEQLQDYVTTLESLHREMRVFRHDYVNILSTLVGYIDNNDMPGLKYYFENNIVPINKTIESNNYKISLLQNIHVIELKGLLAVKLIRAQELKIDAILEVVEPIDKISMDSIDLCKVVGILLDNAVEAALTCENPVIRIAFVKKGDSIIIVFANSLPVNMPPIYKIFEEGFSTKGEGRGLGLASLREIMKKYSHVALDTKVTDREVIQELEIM

Compound: CTAATTCACCTCCACTAATATTTTACAACGAATTTACCCATAATAACCAAAAATGTAATGAAATGTCCGATTCTTGTCATGAACGACCAAAAAAGAGCAGAATTGCCGATTTTTTGGATACATTTCAGAATATTCGAACGTGTAAAAAGGACTGTATAATAGGCTTAAAAACCCATATTAATATTTTATTTAAGTGAGTTTATTCATAAAAAAAACCAACTGCAAAAGAATGTTCACAGTTGGCTTTTCCATTTTA (double strand) [agr promoter P2]
- binding [1]: binds
- binding [2]: binds more weakly

Compound: O=CC=Cc1ccccc1 [cinnamaldehyde]
- Kd (AgrA [3]): 55.9 ± 2.38 µM
- Kd (AgrA [4]): 59 ± 3.44 µM
- Kd (AgrA [5]): 58.3 ± 4.42 µM
- Kd (AgrA [6]): 57.7 ± 6.47 µM
- Kd (AgrA [7]): 62 ± 4.8 µM
- Kd (AgrA [8]): 138 ± 11.4 µM
- Kd (AgrA [9]): 175 ± 17.8 µM
- Kd (AgrA [10]): 53.2 ± 1.52 µM

Compound: Nc1ncnc2c1ncn2[C@@H]1O[C@H](COP(=O)(O)OP(=O)(O)OP(=O)(O)O)[C@@H](O)[C@H]1O [ATP]
- Kinase-Lumi chemiluminescence, residual ATP (AgrCCyto): After incubation, the remaining ATP was reduced with increasing concentrations of AgrCCyto
- Kinase-Lumi chemiluminescence, residual ATP (AgrCFL): AgrCFL was also subjected to the kinase assay, and similar results were observed
